Test results: article PMC11050599, “Novel Tetracyclic Azaphenothiazines with the Quinoline Ring as New Anticancer and Antibacterial Derivatives of Chlorpromazine” (International Journal of Molecular Sciences, 2024)
Values after ≈ are worked out from the molar mass of the structure shown.

Experiments:
[1] = test system: MDA-MB-231 (breast cancer); assay: MTT assay, MDA-MB-231 cells; format: cell-based, human
Outline: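 HCT116 grew in MEM, PC3 in RPMI and MDA-MB-231 and HaCaT in high-glucose DMEM, all supplemented with 10% FBS and 20 mM HEPES. Compounds were incubated with 1 × 10^4 cells per well for 72 h, and viability was derived from MTT absorbance against untreated cells.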

E. coli ATCC 25922 = assay: MIC broth microdilution; format: cell-based; settings: Escherichia coli, ATCC25922; 19 h, 35 °C; read-out: MIC E. coli ATCC 25922
Outline: (§1)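 Two-fold serial broth microdilution in Mueller-Hinton II broth, final inoculum adjusted to […]. Compounds dissolved in DMSO, final solvent at most 1%.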

P. aeruginosa ATCC 15442 = assay: MIC broth microdilution; format: cell-based; settings: Pseudomonas aeruginosa, ATCC15442; 19 h, 35 °C; read-out: MIC P. aeruginosa ATCC 15442
Outline: as §1

S. aureus ATCC 25923 = assay: MIC broth microdilution; format: cell-based; settings: Staphylococcus aureus, ATCC25923; 19 h, 35 °C; read-out: MIC S. aureus ATCC 25923
Outline: as §1

S. aureus ATCC 29213 = assay: MIC broth microdilution; format: cell-based; settings: Staphylococcus aureus, ATCC29213; 19 h, 35 °C; read-out: MIC S. aureus ATCC 29213
Outline: as §1

S. aureus ATCC 6538 = assay: MIC broth microdilution; format: cell-based; settings: Staphylococcus aureus, ATCC6538; 19 h, 35 °C; read-out: MIC S. aureus ATCC 6538
Outline: as §1

S. aureus NCTC 4163 = assay: MIC broth microdilution; format: cell-based; settings: 19 h, 35 °C
Outline: as §1

[2] = test system: S. epidermidis ATCC 12228; assay: MIC broth microdilution; format: cell-based; settings: Staphylococcus epidermidis, ATCC12228; 19 h, 35 °C; read-out: MIC S. epidermidis ATCC 12228
Outline: as §1

[3] = test system: S. epidermidis ATCC 35984; assay: MIC broth microdilution; format: cell-based; settings: Staphylococcus epidermidis, ATCC35984; 19 h, 35 °C; read-out: MIC S. epidermidis ATCC 35984
Outline: as §1

cancer cell lines = assay: MTT assay, summary over several cell lines; format: cell-based, human; settings: Homo sapiens; range over two cell lines not given; read-out: IC50 range against two tested cell lines
Method: The human cell lines, such as A549 (lung cancer), MDA-MB-231 (breast cancer), MiaPaca-2 (pancreatic cancer), PC3 (metastatic prostate cancer), HCT-116 (colon carcinoma), and HaCaT (immortalized keratinocytes), were sourced from the American Type Culture Collection (ATCC) in Rockville, USA. Culturing conditions varied as follows: HCT116 cells were cultured in MEM (ThermoSci, Waltham, MA, USA), A549, MDA-MB-231, MiaPaca, HaCaT cells in DMEM High Glucose and PC3 cells were cultured in RPMI (Biowest SAS, Nuaillé, France). The growth medium consisted of 10% fetal bovine serum (FBS, Sigma-Aldrich, St. Louis, MO, USA), 20 mM HEPES (Biowest, Nuaillé, France), and antibiotics (100 U/mL of penicillin and 100 μg/mL of streptomycin) from Gibco, Grand Island, NY, USA. […] These compounds were added to 96-well plates containing study cells (1 × 10^4 cells per well) and incubated for 72 h. […] Cell absorbance results were incorporated into the formula for calculating the relative MTT level (%), enabling the assessment of cell viability following exposure to the test compounds. The cell viability percentage represents the MTT reduction in cells treated with the test compounds compared to the control sample, where only the medium was added to the cells.

[4] = test system: standard bacterial strains; assay: MIC, summary over standard bacterial strains; format: cell-based; settings: Staphylococcus aureus, ATCC 29213, 25923, and 6538; S. aureus strains other than NCTC 4163; read-out: MIC against the other three strains of S. aureus
Excerpt: To evaluate the antibacterial effectiveness of chloroquinobenzothiazine derivatives, various bacterial strains from international microbe collections such as the American Type Culture Collection (ATCC) and the National Collection of Type Culture (NCTC) were examined, alongside a panel of clinical rods. This included two Gram-negative organisms, E. coli ATCC 25922 and P. aeruginosa ATCC 15442, and a series of six Gram-positive strains: S. aureus NCTC 4163; S. aureus ATCC 29213, 25923, and 6538; and S. epidermidis ATCC 12228 and 35984. The antimicrobial activity was examined using the Minimal Inhibitory Concentration (MIC) method, following standard CLSI procedures with slight adjustments. The MIC was determined using the two-fold serial broth microdilution method in 96-well microtitration plates containing Mueller-Hinton II broth medium (Becton Dickinson, Franklin Lakes, NJ, USA). The final inoculum for all tested bacteria was adjusted to […] (colony-forming units per milliliter). The stock solution of the tested compounds was prepared in dimethyl sulfoxide (DMSO) and diluted to a maximum of 1% solvent content with a sterile medium.

HCT116 cells = assay: Cell cycle analysis by flow cytometry, HCT116; format: cell-based, human; settings: IC50, 24 h, compared to the control
Outline: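 Cells seeded at 1 × 10^5/well, adhered 24 h; attached and detached cells pooled, fixed overnight in 70% cold ethanol. Staining with RNase and propidium iodide (30 min, 37 °C, dark) preceded flow cytometry of sub-G1, G0/G1, S and G2/M fractions, in quadruplicate.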

IC50 ([1]; Homo sapiens, MDA-MB-231, MTT, 72 h, MDA-MB231, read-out: IC50 MDA): 16.7 ± 1.1 µM
MIC (E. coli ATCC 25922): > 256 µg/mL
MIC (P. aeruginosa ATCC 15442): > 256 µg/mL
MIC (S. aureus ATCC 25923): 128 µg/mL (≈ 312 µM)
MIC (S. aureus ATCC 29213): 128 µg/mL (≈ 312 µM)
MIC (S. aureus ATCC 6538): 128 µg/mL (≈ 312 µM)
MIC S. aureus NCTC 4163 (S. aureus NCTC 4163): 8 µg/mL (≈ 19.5 µM)
MIC (S. aureus NCTC 4163; Staphylococcus aureus, NCTC4163, read-out: MIC S. aureus NCTC 4163): 8 µg/mL (≈ 19.5 µM)
MIC [2]: 256 µg/mL (≈ 624 µM)
MIC [3]: 256 µg/mL (≈ 624 µM)
IC50 (cancer cell lines): 16.1 to 16.7 µM
MIC [4]: > 128 µg/mL
Structure (SMILES): CN1CCCCC1CCN1c2cc(Cl)ccc2Sc2cc3ccccc3nc21 (centres unmarked) [Compound 11, 8-Chloro-6-(2-(1-methylpiperidin-2-yl)ethyl)-quino[3,2-b]benzo[1,4]thiazine]
SI MDA ([1]; SI = IC50 for normal cell line (HaCaT)/IC50 cancer cell line): 0.9
increase in the cell amount at the sub-G1 phase, HCT116 (HCT116 cells): 2 fold
